Data as given in US8785457B2 (Cellzome Limited, priority 2009, dated 2014).
Like-named read-outs stand apart in the source and are kept apart here.

Columns and labels:
[1] = tested on: S6RP serine-240/244 phosphorylation; test: In vitro Phospho-S6 cellular assay (pS6RP S240/244) in HEK293T/17 cells; type: cell-based; settings: Homo sapiens, 2 hours, read-out: pS6 IC50
From the text: Activation of mTOR signaling results in phosphorylation of several downstream targets. In cells, mTOR exists in two different protein complexes. The mTOR Complex-1 (mTORC1) phosphorylates and activates S6 Kinase 1 (S6K1) and S6 Kinase 2 (S6K2) (also known as p70S6K) which then phosphorylate S6 Ribosomal Protein (S6RP) (also known as RPS6)3. S6RP is phosphorylated on serine 235, serine 236, serine 240 and serine 244 by both pS6K1 and pS6K2. The mTOR Complex-2 (mTORC2) phosphorylates AKT on serine 473 which activates the AKT signaling pathway.
The assay measures a test compound's inhibition of S6RP serine-240/244 phosphorylation and inhibition of Akt serine-473 phosphorylation in human embryonic kidney derived HEK293T/17 cells (ATCC CRL-11268).
The HEK293T/17 cell line is maintained in DMEM media (Invitrogen catalogue number 41965-039) supplemented with 10% FCS at 37° C. in a 5% CO2 humidified incubator.
Cells are seeded in 96-well plates at 40,000 cells/well (pS6RP S240/244 assay) or 80,000 cells/well (pAkt S473 assay) in 90 μl growth media (DMEM, 2% FCS). Plates are incubated for 1 hour in a humidified incubator to allow the cells to adhere. Cells are treated with 8 concentrations of test compounds or DMSO alone for controls (final DMSO concentration 0.1%) and incubated at 37° C. for 2 hours. Then 20 μl of 5× concentrated lysis buffer (750 mM NaCl, 100 mM Tris pH7.4, 5 mM ADTA, 5 mM EGTA, 5% Triton X-100) is added, plates are sealed and incubated for 15 minutes at 4° C. with gentle shaking. After cell lysis, 25 μl cell lysate is transferred to a MesoScale plate coated with an antibody to pS6RP Ser240/244 (MesoScale Discovery K150DGD-3) or an antibody to pAkt Ser 473 (MesoScale Discovery K151DGD-3). Plates have been blocked before by incubation with 150 μl MesoScale Discovery Blocking Solution-A for 1 hour at room temperature followed by washing with 150 μl 1× Tris wash buffer per well. After the transfer of the cell lysate to the MSD plate, the pS6RP (or pAkt) protein is captured on the coated antibody by incubation at room temperature for 1 hour with gentle shaking. After the capture step the plate is washed three times with 150 μl of 1× Tris wash buffer per well. Then 25 μl detection antibody conjugated with a Sulfo-Tag is added and incubated for 1 hour at room temperature with gentle shaking. Subsequently the antibody solution is removed and the plate is washed 3 times with 150 μl×Tris wash buffer per well and 150 μl Read buffer is added. The plates are analysed on a MSD 2400 Plate Reader (MesoScale Discovery). Data analysis is performed using nonlinear regression for a sigmoidal dose-response with a variable slope.

[2] = target: T1, DNA-dependent protein kinase (DNA-PK) (Homo sapiens, UniProt P78527); test: kinobeads assay, DNA-PK; type: binding; settings: kinobeads assay
T1 construct: endogenous in cells; host or cells: Jurkat, clone E6-1 (ATCC TIB-152) cell lysate
T1 sequence (P78527 whole entry): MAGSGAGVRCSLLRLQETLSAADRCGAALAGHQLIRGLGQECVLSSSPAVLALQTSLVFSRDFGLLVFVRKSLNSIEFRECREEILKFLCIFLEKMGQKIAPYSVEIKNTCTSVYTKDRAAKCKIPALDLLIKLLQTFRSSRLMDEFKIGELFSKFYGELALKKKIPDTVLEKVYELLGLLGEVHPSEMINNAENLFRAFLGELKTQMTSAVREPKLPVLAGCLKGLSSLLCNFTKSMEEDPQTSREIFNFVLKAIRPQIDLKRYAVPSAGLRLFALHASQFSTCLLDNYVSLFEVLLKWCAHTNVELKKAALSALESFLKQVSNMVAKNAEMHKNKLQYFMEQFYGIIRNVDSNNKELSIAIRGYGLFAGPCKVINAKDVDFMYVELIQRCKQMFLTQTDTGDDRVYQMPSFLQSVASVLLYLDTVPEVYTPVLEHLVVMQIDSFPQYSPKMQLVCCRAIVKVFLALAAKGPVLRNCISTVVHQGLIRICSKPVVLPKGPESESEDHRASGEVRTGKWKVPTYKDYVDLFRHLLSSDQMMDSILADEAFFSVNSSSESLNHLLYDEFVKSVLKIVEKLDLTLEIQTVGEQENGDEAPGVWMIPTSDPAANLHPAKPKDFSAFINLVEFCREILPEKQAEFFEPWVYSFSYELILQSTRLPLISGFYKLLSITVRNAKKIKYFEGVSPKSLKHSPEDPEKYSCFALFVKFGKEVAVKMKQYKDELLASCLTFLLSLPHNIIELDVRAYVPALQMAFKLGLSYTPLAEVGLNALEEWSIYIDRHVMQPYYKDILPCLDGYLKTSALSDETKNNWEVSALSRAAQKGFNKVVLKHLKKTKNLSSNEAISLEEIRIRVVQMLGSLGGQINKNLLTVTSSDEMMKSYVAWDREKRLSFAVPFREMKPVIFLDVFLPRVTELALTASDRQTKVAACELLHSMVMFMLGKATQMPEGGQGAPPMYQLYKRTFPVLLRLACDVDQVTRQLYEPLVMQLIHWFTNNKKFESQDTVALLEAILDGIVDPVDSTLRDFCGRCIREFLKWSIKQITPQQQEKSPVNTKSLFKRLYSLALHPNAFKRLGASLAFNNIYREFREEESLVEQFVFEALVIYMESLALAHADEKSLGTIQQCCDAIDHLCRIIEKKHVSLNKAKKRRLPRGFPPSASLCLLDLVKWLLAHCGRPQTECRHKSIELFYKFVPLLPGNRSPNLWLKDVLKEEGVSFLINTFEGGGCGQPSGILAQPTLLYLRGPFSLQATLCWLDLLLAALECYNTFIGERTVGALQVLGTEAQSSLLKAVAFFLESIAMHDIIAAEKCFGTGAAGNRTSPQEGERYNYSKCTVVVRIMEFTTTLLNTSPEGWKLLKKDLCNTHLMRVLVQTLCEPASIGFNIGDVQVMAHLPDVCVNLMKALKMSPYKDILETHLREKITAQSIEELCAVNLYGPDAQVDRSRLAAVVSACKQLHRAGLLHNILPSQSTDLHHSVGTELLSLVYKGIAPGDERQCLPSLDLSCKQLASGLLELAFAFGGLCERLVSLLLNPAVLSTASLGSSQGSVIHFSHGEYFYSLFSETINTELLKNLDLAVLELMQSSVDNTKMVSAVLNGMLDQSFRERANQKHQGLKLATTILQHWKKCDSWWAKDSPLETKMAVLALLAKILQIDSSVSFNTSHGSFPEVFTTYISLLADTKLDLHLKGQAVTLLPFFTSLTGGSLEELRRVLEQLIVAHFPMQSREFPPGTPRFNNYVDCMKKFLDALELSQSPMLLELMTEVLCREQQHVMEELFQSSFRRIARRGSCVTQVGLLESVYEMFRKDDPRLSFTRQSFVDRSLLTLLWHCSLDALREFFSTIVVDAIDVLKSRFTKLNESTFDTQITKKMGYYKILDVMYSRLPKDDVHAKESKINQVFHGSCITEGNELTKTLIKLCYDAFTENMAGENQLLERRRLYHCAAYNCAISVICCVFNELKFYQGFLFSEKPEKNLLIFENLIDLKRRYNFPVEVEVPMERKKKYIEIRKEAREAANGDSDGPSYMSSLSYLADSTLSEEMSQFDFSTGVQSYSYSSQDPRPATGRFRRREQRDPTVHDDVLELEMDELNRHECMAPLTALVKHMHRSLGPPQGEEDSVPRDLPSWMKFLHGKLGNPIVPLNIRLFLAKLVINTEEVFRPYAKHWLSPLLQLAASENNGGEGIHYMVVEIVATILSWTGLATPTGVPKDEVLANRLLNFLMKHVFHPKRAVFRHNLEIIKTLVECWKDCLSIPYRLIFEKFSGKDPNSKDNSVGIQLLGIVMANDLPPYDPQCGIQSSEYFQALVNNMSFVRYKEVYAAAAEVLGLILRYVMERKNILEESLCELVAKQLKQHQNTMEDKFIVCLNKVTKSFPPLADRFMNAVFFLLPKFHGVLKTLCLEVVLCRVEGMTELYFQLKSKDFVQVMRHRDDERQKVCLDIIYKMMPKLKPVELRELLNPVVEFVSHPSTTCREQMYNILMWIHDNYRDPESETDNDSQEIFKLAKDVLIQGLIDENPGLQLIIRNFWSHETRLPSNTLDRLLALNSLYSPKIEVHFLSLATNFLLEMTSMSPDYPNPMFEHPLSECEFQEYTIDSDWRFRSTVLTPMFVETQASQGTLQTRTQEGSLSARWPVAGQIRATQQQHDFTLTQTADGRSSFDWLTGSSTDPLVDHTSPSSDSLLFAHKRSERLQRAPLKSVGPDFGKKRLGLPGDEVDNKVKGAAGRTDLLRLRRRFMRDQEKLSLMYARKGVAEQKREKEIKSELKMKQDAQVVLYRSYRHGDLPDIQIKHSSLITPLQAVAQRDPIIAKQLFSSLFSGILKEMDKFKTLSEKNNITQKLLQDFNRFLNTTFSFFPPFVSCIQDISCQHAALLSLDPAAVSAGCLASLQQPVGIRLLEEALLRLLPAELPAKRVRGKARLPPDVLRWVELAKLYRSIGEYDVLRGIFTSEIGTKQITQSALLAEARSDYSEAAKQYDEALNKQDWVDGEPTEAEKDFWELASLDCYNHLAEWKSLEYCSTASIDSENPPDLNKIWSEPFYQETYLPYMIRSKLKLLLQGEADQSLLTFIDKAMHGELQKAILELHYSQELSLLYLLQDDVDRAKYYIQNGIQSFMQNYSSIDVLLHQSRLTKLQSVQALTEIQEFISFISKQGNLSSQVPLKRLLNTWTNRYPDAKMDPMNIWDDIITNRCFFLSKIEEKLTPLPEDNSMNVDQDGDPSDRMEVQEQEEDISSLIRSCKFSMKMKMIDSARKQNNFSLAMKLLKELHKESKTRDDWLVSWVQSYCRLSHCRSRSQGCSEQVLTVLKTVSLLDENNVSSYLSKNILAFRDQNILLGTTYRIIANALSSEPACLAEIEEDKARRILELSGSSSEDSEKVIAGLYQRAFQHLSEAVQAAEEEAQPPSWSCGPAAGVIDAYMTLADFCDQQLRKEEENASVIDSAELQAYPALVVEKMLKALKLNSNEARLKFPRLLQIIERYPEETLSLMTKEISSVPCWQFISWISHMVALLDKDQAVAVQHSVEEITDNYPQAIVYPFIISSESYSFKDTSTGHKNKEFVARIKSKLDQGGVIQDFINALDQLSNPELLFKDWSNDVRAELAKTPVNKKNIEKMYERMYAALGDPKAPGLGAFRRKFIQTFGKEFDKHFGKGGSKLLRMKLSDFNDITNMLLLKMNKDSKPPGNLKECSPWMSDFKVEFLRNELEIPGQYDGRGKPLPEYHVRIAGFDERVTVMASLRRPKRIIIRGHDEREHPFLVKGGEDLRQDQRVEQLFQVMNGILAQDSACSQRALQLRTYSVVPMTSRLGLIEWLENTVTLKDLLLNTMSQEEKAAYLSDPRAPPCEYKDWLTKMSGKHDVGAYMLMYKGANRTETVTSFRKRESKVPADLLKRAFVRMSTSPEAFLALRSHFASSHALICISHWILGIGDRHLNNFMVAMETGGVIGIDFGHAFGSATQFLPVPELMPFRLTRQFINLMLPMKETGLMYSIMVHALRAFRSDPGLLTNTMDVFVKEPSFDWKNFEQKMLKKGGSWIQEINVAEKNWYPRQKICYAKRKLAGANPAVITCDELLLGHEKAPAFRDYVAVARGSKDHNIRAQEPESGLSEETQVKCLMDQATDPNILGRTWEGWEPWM
Procedure, shortened: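 Competitive binding in Jurkat cell lysate (5 mg/mL protein) against beads carrying an immobilized phenylmorpholin-chromen ligand, in DP buffer pH 7.4 with NP40, DTT and NaF. Bead-bound kinases were eluted and quantified by antibody dot blot with infrared detection, and IC50 was taken from dose-response curves of a 1:3 dilution series.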

[3] = Table 4, read-out: Inhibition values (IC50) DNA-PK
[4] = Table 6, read-out: Inhibition values (IC50) DNAPK

Structure (SMILES)	IC50 [1] [nM]	IC50 [2, 3] [µM]	IC50 [2, 4] [µM]
CCNC(=O)Nc1ccc(-c2nc3c(c(N4CCOC[C@@H]4C)n2)CN(C=O)C3)cc1 [Example 8, (S)-1-ethyl-3-(4-(6-formyl-4-(3-methylmorpholino)-6,7-dihydro-5H-pyrrolo[3,4-d]pyrimidin-2-yl)phenyl)urea]	289	> 10	> 10
CCNC(=O)Nc1ccc(-c2nc3c(c(N4CCOC[C@@H]4C)n2)CN(C(C)=O)C3)cc1 [Example 18, (S)-1-(4-(6-acetyl-4-(3-methylmorpholino)-6,7-dihydro-5H-pyrrolo[3,4-d]pyrimidin-2-yl)phenyl)-3-ethylurea]	443	> 10	> 10
CCNC(=O)Nc1ccc(-c2nc3c(c(N4CCOC[C@@H]4C)n2)CN(C(=O)c2ccc(F)cc2)C3)cc1 [Example 19, (S)-1-ethyl-3-(4-(6-(4-fluorobenzoyl)-4-(3-methylmorpholino)-6,7-dihydro-5H-pyrrolo[3,4-d]pyrimidin-2-yl)phenyl)urea]	135	> 10	> 10
CCNC(=O)Nc1ccc(-c2nc3c(c(N4CCOC[C@@H]4C)n2)CN(C(=O)C(C)C)C3)cc1 [Example 21, (S)-1-ethyl-3-(4-(6-isobutyryl-4-(3-methylmorpholino)-6,7-dihydro-5H-pyrrolo[3,4-d]pyrimidin-2-yl)phenyl)urea]	111	> 10	> 10
CCNC(=O)Nc1ccc(-c2nc3c(c(N4CCOC[C@@H]4C)n2)CN(C(=O)C(C)(C)C)C3)cc1 [Example 22, (S)-1-ethyl-3-(4-(4-(3-methylmorpholino)-6-pivaloyl-6,7-dihydro-5H-pyrrolo[3,4-d]pyrimidin-2-yl)phenyl)urea]	87	> 10	> 10
CCNC(=O)Nc1ccc(-c2nc3c(c(N4CCOC[C@@H]4C)n2)CN(C(=O)C2CC2)C3)cc1 [Example 23, (S)-1-(4-(6-(cyclopropanecarbonyl)-4-(3-methylmorpholino)-6,7-dihydro-5H-pyrrolo[3,4-d]pyrimidin-2-yl)phenyl)-3-ethylurea]	115	> 10	> 10
CCNC(=O)Nc1ccc(-c2nc3c(c(N4CCOC[C@@H]4C)n2)CCN(C(=O)c2ccc(F)cc2)C3)cc1 [Example 24, (S)-1-ethyl-3-(4-(7-(4-fluorobenzoyl)-4-(3-methylmorpholino)-5,6,7,8-tetrahydropyrido[3,4-d]pyrimidin-2-yl)phenyl)urea]	126	> 10	> 10
CCNC(=O)Nc1ccc(-c2nc3c(c(N4CCOC[C@@H]4C)n2)CN(C)C3)cc1 [Example 26, (S)-1-ethyl-3-(4-(6-methyl-4-(3-methylmorpholino)-6,7-dihydro-5H-pyrrolo[3,4-d]pyrimidin-2-yl)phenyl)urea]	196	> 10	> 10
CCNC(=O)Nc1ccc(-c2nc3c(c(N4CCOC[C@@H]4C)n2)CCN(CC)C3)cc1 [Example 27, (S)-1-ethyl-3-(4-(7-ethyl-4-(3-methylmorpholino)-5,6,7,8-tetrahydropyrido[3,4-d]pyrimidin-2-yl)phenyl)urea]	24	> 10	> 10
CCNC(=O)Nc1ccc(-c2nc3c(c(N4CCOC[C@@H]4C)n2)CN(Cc2ccc(F)cc2)C3)cc1 [Example 29, (S)-1-ethyl-3-(4-(6-(4-fluorobenzyl)-4-(3-methylmorpholino)-6,7-dihydro-5H-pyrrolo[3,4-d]pyrimidin-2-yl)phenyl)urea]	130	> 10	> 10
CCNC(=O)Nc1ccc(-c2nc3c(c(N4CCOC[C@@H]4C)n2)CN(S(C)(=O)=O)C3)cc1 [Example 32, (S)-1-ethyl-3-(4-(4-(3-methylmorpholino)-6-(methylsulfonyl)-6,7-dihydro-5H-pyrrolo[3,4-d]pyrimidin-2-yl)phenyl)urea]	182	> 10	> 10

Other lines, results leading:

IC50 [1] [nM]	IC50 [2, 3] [µM]	IC50 [2, 4] [µM]	Structure (SMILES)
588	> 10	> 10	C[C@H]1COCCN1c1nc(-c2ccc(NC(=O)NC3CC3)cc2)nc2c1CNCC2 [Example 11, (S)-1-cyclopropyl-3-(4-(4-(3-methylmorpholino)-5,6,7,8-tetrahydropyrido[4,3-d]pyrimidin-2-yl)phenyl)urea]
839	> 10	> 10	CCNC(=O)Nc1ccc(-c2nc3c(c(N4CCOC[C@@H]4C)n2)CNCC3)cc1 [Example 12, (S)-1-ethyl-3-(4-(4-(3-methylmorpholino)-5,6,7,8-tetrahydropyrido[4,3-d]pyrimidin-2-yl)phenyl)urea]
240	> 10	> 10	CCNC(=O)Nc1ccc(-c2nc3c(c(N4CCOC[C@@H]4C)n2)CCNC3)cc1 [Example 13, (S)-1-ethyl-3-(4-(4-(3-methylmorpholino)-5,6,7,8-tetrahydropyrido[3,4-d]pyrimidin-2yl)phenyl)urea]
238	> 10	> 10	C[C@H]1COCCN1c1nc(-c2ccc(NC(=O)NC3CC3)cc2)nc2c1CCNC2 [Example 15, (S)-1-cyclopropyl-3-(4-(4-(3-methylmorpholino)-5,6,7,8-tetrahydropyrido[3,4-d]pyrimidin-2-yl)phenyl)urea]
297	> 10	> 10	CNC(=O)Nc1ccc(-c2nc3c(c(N4CCOC[C@@H]4C)n2)CCNC3)cc1 [Example 16, (S)-1-methyl-3-(4-(4-(3-methylmorpholino)-5,6,7,8-tetrahydropyrido[3,4-d]pyrimidin-2-yl)phenyl)urea]
142	> 10	> 10	C[C@H]1COCCN1c1nc(-c2ccc(NC(=O)NC3CC3)cc2)nc2c1CN(C(=O)C1CC1)C2 [Example 17, (S)-1-(4-(6-(cyclopropanecarbonyl)-4-(3-methylmorpholino)-6,7-dihydro-5H-pyrrolo[3,4-d]pyrimidin-2-yl)phenyl)-3-cyclopropylurea]
330	> 10	> 10	CC(=O)N1Cc2nc(-c3ccc(NC(=O)NC4CC4)cc3)nc(N3CCOC[C@@H]3C)c2C1 [Example 20, (S)-1-(4-(6-acetyl-4-(3-methylmorpholino)-6,7-dihydro-5H-pyrrolo[3,4-d]pyrimidin-2-yl)phenyl)-3-cyclopropylurea]
98	> 10	> 10	C[C@H]1COCCN1c1nc(-c2ccc(NC(=O)NC3CC3)cc2)nc2c1CN(CC(C)(C)C)C2 [Example 25, (S)-1-cyclopropyl-3-(4-(4-(3-methylmorpholino)-6-neopentyl-6,7-dihydro-5H-pyrrolo[3,4-d]pyrimidin-2-yl)phenyl)urea]
72	> 10	> 10	CCNC(=O)Nc1ccc(-c2nc3c(c(N4CCOC[C@@H]4C)n2)CN(CC2CC2)C3)cc1 [Example 28, (S)-1-(4-(6-(cyclopropylmethyl)-4-(3-methylmorpholino)-6,7-dihydro-5H-pyrrolo[3,4-d]pyrimidin-2-yl)phenyl)-3-ethylurea]
170	> 10	> 10	C[C@H]1COCCN1c1nc(-c2ccc(NC(=O)NC3CC3)cc2)nc2c1CN(CC1CC1)C2 [Example 30]
379	> 10	> 10	CCNC(=O)N1Cc2nc(-c3ccc(NC(=O)NC4CC4)cc3)nc(N3CCOC[C@@H]3C)c2C1 [Example 33, (S)-2-(4-(3-cyclopropylureido)phenyl)-N-ethyl-4-(3-methylmorpholino)-5H-pyrrolo[3,4-d]pyrimidine-6(7H)-carboxamide]
